The values below come from patent US7083799B1, “No-synthase inhibitors” (L'Oreal, priority 1995, dated 2006).

SMILES strings stand for the structures.

Data set [1] concerns mouse ear oedema induced by 0.01% 2-(5,6,7,8-tetrahydro-5,5,8,8-tetramethyl-2-naphthyl)-6-benzo[b]thiophenecarboxylic acid. The data set can be described thus: mouse ear oedema test (ear thickness) induced by topical application of an irritant retinoid. It counts as in vivo, mouse (Balb/C). Particulars: curative. The method, then: This increase in the thickness of the mouse ear appears to be due to an increase in the thickness of the epidermis and to the appearance of a dermal oedema. This response can therefore be easily measured with the aid of an apparatus, such as the oditest.
(§1) 5 (=group 2) of the 10 mice thus treated are made to ingest orally N^G-nitro-L-arginine methyl ester in drinking water from t=0 and once per day for 11 days (N^G-nitro-L-arginine methyl ester concentration of 1 mg/ml, that is to say 170±40 mg/kg per day).
[…] The 5 mice which were not treated with […] constitute group 1.

Another data set has as its system mouse ear. Particulars: in vivo.
The subject of data set [2] is mouse ear oedema induced by 0.01% 2-(5,6,7,8-tetrahydro-5,5,8,8-tetramethyl-2-naphthyl)-6-benzo[b]thiophenecarboxylic acid. Description: mouse ear oedema test (ear thickness) induced by topical application of an irritant retinoid. It counts as in vivo, mouse (Balb/C).
Data set [3] in a line: observation of toxicity and weight change in mice given the inhibitor orally. It counts as in vivo, mouse (Balb/C). Particulars: oral in drinking water 1 mg/ml (170±40 mg/kg per day), once per day for 11 days. The method, then: as §1
The mark [4] stands for this setting: 1% by weight, topical from 6 hours after the irritant, once per day for 5 days.
Setting [5] is: gel 1% by weight, topical once per day for 4 days before the irritant, preventive, group A vs group B.
[6] abbreviates: 5%, topical from 6 hours after the irritant, once per day for 5 days, curative.

Turning to `CNC(=N)NCCC[C@H](N)C(=O)O` [L-NMMA, N^G-monomethyl-L-arginine], in data set [1] (setting [4]), the “inhibition of the ear oedema” value is 28% and the “reduction of the area under the curve of the response induced by the irritant product (ear thickness vs days)” value (from here on “reduction of the area”) came out at 51%. Also, in data set [1] (gel 1% by weight, topical from 6 hours after the irritant, once per day for 5 days, after 5 days), the “increase in the thickness of the mouse ear (maximum of group 1 without inhibitor = 100%)” value was 72%.

Regarding `CN(C)C(N)=NCCC[C@H](N)C(=O)O` [N^G,N^G-dimethylarginine], the “increase in the thickness of the ear by the inhibitor gel alone” value with mouse ear is recorded as “No increase”. In addition, in data set [2] (setting [5]), the “reduction of the amplitude of the response induced by the irritant product” value is recorded as 24% and the “reduction of the area” value amounted to 50%.

Take `COC(=O)[C@@H](N)CCCNC(=N)N[N+](=O)[O-]` [N^G-nitro-L-arginine methyl ester, methyl ester of N^G-nitro-L-arginine]: the “increase in the thickness of the mouse ear (maximum of group 1 without inhibitor = 100%)” value in data set [1] (oral in drinking water 1 mg/ml (170±40 mg/kg per day) from t=0, once per day, after 5 days of treatment) turned out to be 70%. Moreover, the “inhibition of the ear oedema” value in data set [1] (oral in drinking water 1 mg/ml (170±40 mg/kg per day) from t=0, after 5 days) is reported as 30%. In data set [3], the change in weight result is recorded as “not modified” and the sign of toxicity result is “no sign of toxicity”.

On to `CN=C(NC)NCCC[C@H](N)C(=O)O` [SDMA, N^G,N^G-dimethyl-L-arginine, reference compound], for which, in data set [1] (setting [4]), the “inhibition of the ear oedema” value came out at 7% and the “reduction of the area” value is given as 27%.

As for `C[N+](C)(C)CC(=O)O` [betaine, reference compound], in data set [1] (setting [4]), the “inhibition of the ear oedema” value turned out to be 9% and the “reduction of the area” value worked out at 24%. In data set [2] (setting [6]), the “inhibition of the ear oedema” value is on record as 16% and the “reduction of the area” value came out at 13%.
